Source: US20240352418A1, “METHOD FOR PRODUCING MULTINUCLEATED MEGAKARYOCYTE WITH ENHANCED PLATELET PRODUCTION CAPABILITY, METHOD FOR PRODUCING PLATELETS, METHOD FOR PRODUCING PLATELET PREPARATION, AND METHOD FOR PRODUCING BLOOD PREPARATION” (Megakaryon Corporation, priority 2021, published 2024)

Assays:
[1] = test system: multinucleated megakaryocytes induced from immortalized megakaryocyte cell line (MKCL); assay: Size and expansion of multinucleated megakaryocytes after BSA fractionation (FSC, phase-contrast microscope); assay type: cell-based, human; settings: F1 fraction, phase-contrast images, FIG. 4; AZ191 1 μmol/L and blebbistatin 10 μmol/L added together to GNF351 + Y-39983 (1B vs 1A); harmine 5 μmol/L added on top (Example 1 vs 1B)
Excerpt: Multinucleation was induced by culturing the immortalized megakaryocyte cell line obtained in Example 1(1) in the same manner as in Example 1(2). The obtained multinucleated megakaryocytes were fractionated according to the size of multinucleated megakaryocytes using bovine serum albumin. Specifically, a three-way stopcock was attached to a 50-ml injection syringe with a plunger removed, and the syringe was fixed with a clamp with a leading end of the tube facing downward. A 30% (w/v) albumin solution (derived from bovine serum, fatty acid free, Fujifilm Wako Pure Chemical Corporation #017-22231) was diluted with 1×HBSS (ThermoFisher #14175095) to prepare 2%, 4%, and 16% BSA solutions, and 16% (10 ml), 4% (4 ml), 2% (4 ml), and 0% (2 ml) solutions were layered in the above syringe in the stated order. A cell suspension containing 75×10^5 multinucleated megakaryocyte cells prepared using 2 ml of HBSS was then applied and allowed to stand for 50 minutes, so that the cells were settled under natural gravity. Then, the three-way stopcock was loosened, and the cells were collected by dropping droplets thereof. As a result, the cell population containing the multinucleated megakaryocytes was fractionated into fractions 1 to 4 (F1 to F4). Regarding the multinucleated megakaryocytes of each fraction, the number of sets of chromosomes (N) was analyzed in the same manner as in Example 1(3) above (Example 1). […]
After the fractionation, platelets were produced from multinucleated megakaryocytes by culturing the multinucleated megakaryocytes in the production culture medium excluding DOX. […] After the culturing, regarding the cell suspension containing platelets, the amount of platelets produced per megakaryocyte was calculated in the same manner as in Example 1(4).

[2] = test system: immortalized megakaryocyte cell line (MKCL); assay: Degree of multinucleation (number of sets of chromosomes, PI staining, flow cytometer); assay type: cell-based, human; settings: cultured 3 days with DOX; FIG. 1; harmine alone 10 μmol/L in growth medium (control 2); Example 1 = multinucleation culture medium; vs control 1 (growth medium)
Method: Next, multinucleation of immortalized megakaryocytes was induced by culturing, in a culture medium to which an AhR inhibitor, a ROCK inhibitor, a DYRK inhibitor, a myosin 2 inhibitor, and harmine were added in addition to DOX. Specifically, the immortalized megakaryocyte cell line obtained in Example 1(1) was suspended in a multinucleation culture medium below, to 3.0×10^5 cells/ml. Then, the cells were seeded on a 6-well dish at 2 mL/well, or on a 125-mL Erlenmeyer Flask at 25 mL/flask, and cultured while being shaken at 100 rpm for 3 days. The culture conditions were set to 37° C. and 5% CO2. […]
The cell suspension obtained after the culturing was collected, and the number of sets of chromosomes in the cell suspension and the size of the cells were measured using a flow cytometer. […] As for the obtained results, the number of sets of chromosomes (N) contained in megakaryocytes and the size of the cells was analyzed based on FSC and PI staining intensity (Example 1). […]
The nuclear phases of the multinucleated megakaryocytes obtained using the method for producing multinucleated megakaryocytes according to the present invention were examined. […] As for the obtained results, the number of sets of chromosomes (N) contained in megakaryocytes and the size of the cells was analyzed based on FSC and PI staining intensity. […]

| Structure (SMILES) | expansion of multinucleated megakaryocytes [1] | degree of multinucleation (nuclear phases detected) [2] |
| --- | --- | --- |
| COc1ccc2c(c1)[nH]c1c(C)nccc12 [harmine, 7-methoxy-1-methyl-9H-pyrido[3,4-b]indole] | no effect | 32N multinucleated megakaryocytes were slightly detected |
| COc1cc(N2CCN(C)CC2)ccc1Nc1nccc(-c2cn(C)c3cnccc23)n1 [AZ191, N-[2-methoxy-4-(4-methyl-1-piperazinyl)phenyl]-4-(1-methyl-1H-pyrrolo [2,3-c]pyridin-3-yl)-2-pyrimidinamine] | facilitated expansion of multinucleated megakaryocytes | – |
| Cc1ccc2c(c1)C(=O)C1(O)CCN(c3ccccc3)C1=N2 (stereo not shown) [blebbistatin, 3a-hydroxy-6-methyl-1-phenyl-2,3-dihydropyrrolo[2,3-b]quinolin-4-one] | facilitated expansion of multinucleated megakaryocytes | – |
